# In PMC9811682 (Frontiers in Chemistry, 2022):
# Read-outs that look alike come from different tables or passages of the source.
# Tests used:
# [1] = target: T1, AChE (EC 3.1.1.7, from electric eel) (Electrophorus electricus, UniProt O42275); assay: In vitro AChE inhibitory activity assay (modified Ellman's method); format: biochemical; settings: tested at 100 μM, triplicate
# T1 construct: purchased Aladdin (Shanghai, China)
# Protocol: (§1) The inhibitory activities against AChE (EC 3.1.1.7) and BChE (EC 3.1.1.8) of the fungal samples and test compounds were analyzed following Ellman’s method ([Ellman et al., 1961]) with modifications. AChE (EC 3.1.1.7, from electric eel), BChE (EC 3.1.1.8, from equine serum), acetylthiocholine iodide (ATCI), butyrylthiocholine iodide (BTCI), and 5,5′-dithiobis (2-nitrobenzoic acid) (DTNB) were purchased from Aladdin (Shanghai, China). AChE and BChE solutions were prepared with water (0.2 units/ml). ATCI and BTCI solutions (10 mM) were prepared with deionized water before using. A DTNB solution (10 mM) was prepared in a 0.1 M, pH 8.0 solution of potassium dihydrogen phosphate (1.36 g, 10 mmol) in 100 ml of water (PBS). The fungal samples for screening were diluted to 1.0 mg/ml with methanol. The test compounds were dissolved in methanol (10 mM) as stock solutions. Subsequently, at least five different concentrations of each compound (double ratio dilution with methanol) were used to determine the half maximal inhibitory concentration (IC50). The tests were performed using 96-well plates. First, 160 μl of PBS, 2 μl of the test sample solution, 20 μl of AChE or BChE, and 10 μl of DTNB were added and mixed in each well, and then preincubated at 37°C for 10 min. After the addition of 10 μl of ATCI or BTCI, the reaction was initiated and incubated at 37°C for another 10 min. Then, the absorbance was measured at 412 nm. The wells with 2 μl of methanol replacing the test sample solution was used to determine 100% of the enzyme activity, and 20 μl of water replacing the enzyme solution was used to determine the blank value. All of the tests for each sample were performed in triplicate. The inhibition curve was fitted by plotting the inhibition rate vs. the logarithm of the test compound concentration. The IC50 values were calculated using Microsoft Excel software, and the data were expressed as the mean ± SD. The inhibition rate was calculated using the formula: IR% = [(Ac-As)]/[(Ac-Ab)] × 100%, where Ab denotes the absorbance of the blank control without the enzyme solution, Ac represents the absorbance of the control without the sample solution, and As denotes the absorbance of the sample.
# [2] = target: T2, BChE (EC 3.1.1.8, from equine serum) (Equus caballus, UniProt P81908); assay: biochemical; format: biochemical; settings: for BChE IR, %: tested at 100 μM, triplicate
# T2 construct: BChE (EC 3.1.1.8, from equine serum); purchased Aladdin (Shanghai, China); host or cells: equine serum
# Protocol: The fresh spore suspensions of SGP-1 and the seven other strains were inoculated into an Erlenmeyer flask (250 ml) containing 100 ml of liquid medium (glucose 2%, maltose 1%, mannitol 2%, glutamic acid 1%, peptone 0.5%, and yeast extract 0.3% in distilled water) and fermented at 28°C for 12 days on a rotary shaker at 200 rpm. To each fermentation broth was added 200 ml of ethyl acetate (EtOAc), and extraction was performed with the assistance of ultrasonication (40 kHz) for 30 min. The EtOAc solutions were removed in vacuo at 37°C to produce the EtOAc extracts. Each fungal EtOAc extract was dissolved in methanol at a concentration of 100.0 mg/ml, and was further diluted to a […] solution used for an in vitro BChE inhibitory activity assay. A sample of strain SGP-1 was analyzed using an HPLC-photo-diode array detector (PDAD)-UV with an analytical Kromasil C18 column (5 μm, 100 Å, 4.6 mm × 250 mm; Akzo Nobel) on an Agilent 1100 HPLC system equipped with a PDAD (G1316A). The extraction solution in methanol (100.0 mg/ml) was filtered with a 0.45-μm membrane, and then injected (20 μl) into the column, followed by elution with an MeOH-H2O linear gradient (20%→100% MeOH in 20 min followed by 5 min with isocratic 100% MeOH) mobile phase (flow rate 1 ml/min). During the separation procedure, the constituents of the emerging chromatographic peaks were collected in Eppendorf tubes with 2 s of delay. Each eluate was fixed to a volume of 200 μl, which was then used for the BChE inhibitory activity assay. The acquired PDAD data, including the UV spectra of peaks, were processed using Agilent OpenLAB software.
# as §1
# [3] = target: T2, BChE (EC 3.1.1.8, from equine serum); assay: Kinetic study of BChE inhibition (Lineweaver-Burk and secondary plots); format: biochemical
# Protocol: Kinetic studies were performed using the same protocol as the BChE inhibitory activity assay, and the substrate BTCI was used in a series of concentrations, 0.2, 0.4, 0.5, 0.6, and 0.7 mM. The test compound concentrations were set according to the inhibition IC50 of each compound. The enzymatic reaction was extended to 15 min before the detection of the absorbance. Lineweaver–Burk plots were generated to obtain the kinetic parameters, Michaelis constant (Km) and maximum velocity (Vmax), according to which inhibition modes were determined.
# α-glucosidase = settings: earlier study quoted in discussion; no reference given; cited from earlier work
# [4] = sample concentration that led to 50% enzyme activity loss, mean ± SD, read-out: BChE IC50
# [5] = BChE, competitive inhibition, secondary plot of K vs [I], read-out: Ki (inhibition constant)
# T2 sequence (P81908 whole entry): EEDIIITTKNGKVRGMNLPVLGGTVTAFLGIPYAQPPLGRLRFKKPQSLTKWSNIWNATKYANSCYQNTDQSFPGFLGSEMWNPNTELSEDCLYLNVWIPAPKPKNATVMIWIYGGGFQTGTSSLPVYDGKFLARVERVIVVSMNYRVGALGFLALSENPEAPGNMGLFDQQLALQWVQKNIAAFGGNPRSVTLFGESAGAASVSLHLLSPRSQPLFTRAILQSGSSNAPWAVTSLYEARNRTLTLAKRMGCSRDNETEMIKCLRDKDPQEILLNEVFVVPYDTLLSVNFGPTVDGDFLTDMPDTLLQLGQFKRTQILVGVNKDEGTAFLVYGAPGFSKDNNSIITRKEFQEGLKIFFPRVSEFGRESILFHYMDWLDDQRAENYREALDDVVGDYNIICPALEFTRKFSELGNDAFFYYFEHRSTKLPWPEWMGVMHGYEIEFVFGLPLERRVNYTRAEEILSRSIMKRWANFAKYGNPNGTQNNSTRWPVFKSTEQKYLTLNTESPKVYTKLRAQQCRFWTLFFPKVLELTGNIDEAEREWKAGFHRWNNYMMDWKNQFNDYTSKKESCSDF
# T1 sequence (O42275 24-633): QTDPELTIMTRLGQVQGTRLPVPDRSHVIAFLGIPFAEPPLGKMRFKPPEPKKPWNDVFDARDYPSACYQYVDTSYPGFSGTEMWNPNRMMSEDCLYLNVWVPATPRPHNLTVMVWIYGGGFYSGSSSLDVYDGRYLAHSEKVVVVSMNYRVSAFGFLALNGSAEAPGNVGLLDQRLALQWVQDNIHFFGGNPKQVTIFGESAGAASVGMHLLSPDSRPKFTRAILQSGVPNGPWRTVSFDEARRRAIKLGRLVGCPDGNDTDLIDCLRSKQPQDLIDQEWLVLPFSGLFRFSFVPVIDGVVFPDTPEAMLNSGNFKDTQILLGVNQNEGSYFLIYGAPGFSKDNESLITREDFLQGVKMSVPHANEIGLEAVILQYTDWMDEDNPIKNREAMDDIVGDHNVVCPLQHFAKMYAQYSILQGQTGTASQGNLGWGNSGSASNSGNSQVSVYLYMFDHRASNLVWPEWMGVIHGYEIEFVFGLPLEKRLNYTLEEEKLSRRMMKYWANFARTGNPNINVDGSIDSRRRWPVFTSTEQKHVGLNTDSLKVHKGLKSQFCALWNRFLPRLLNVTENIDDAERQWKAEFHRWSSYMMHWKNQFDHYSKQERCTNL
smiles,measurement,setting,value
"COC(=O)C1(Cc2ccc(O)c(CCC(C)(C)O)c2)OC(=O)C(O)=C1c1ccc(O)cc1 (centres unmarked) [Compound 12, aspernolide B]","AChE IR, %",[1],2.2 ± 1.5%
same,IC50,[2]; [4],> 100 µM
same,"BChE IR, %",[2],13.4 ± 1.3%
"COC(=O)C1(Cc2ccc3c(c2)CC(C(C)(C)O)O3)OC(=O)C(O)=C1c1ccc(O)cc1 (centres unmarked) [Compound 15, butytolactone IV]","AChE IR, %",[1],13.3 ± 5.5%
same,IC50,[2]; [4],> 100 µM
same,"BChE IR, %",[2],33.5 ± 2.3%
"CC1(C)CCc2cc(CC3OC(=O)C(O)=C3c3ccc(O)cc3)ccc2O1 (centres unmarked) [Compound 10, 5-[(3,4-dihydro-2,2-dimethyl-2H-1-benzopyran-6-yl)methyl]-3-hydroxy-4-(4-hydroxyphenyl)-2(5H)-furanone]","AChE IR, %",[1],23.2 ± 1.1%
same,IC50,[2]; [4],> 100 µM
same,"BChE IR, %",[2],33.3 ± 7.5%
"CC(C)=CCc1cc(CC2OC(=O)C(O)=C2c2ccc(O)cc2)ccc1O (centres unmarked) [Compound 8, 3-hydroxy-5-[[4-hydroxy-3-(3-methyl-2-buten-1-yl)phenyl]methyl]-4-(4-hydroxyphenyl)-2(5H)-furanone]","AChE IR, %",[1],14.2 ± 0.5%
same,IC50,[2]; [4],45.1 ± 7.2 µM
same,"BChE IR, %",[2],60.9 ± 0.6%
same,Ki,[3]; [5],35.7 µM
"COC(=O)C1(Cc2ccc(O)c(CC=C(C)C)c2)OC(=O)C(O)=C1c1ccccc1 (centres unmarked) [Compound 5, versicolactone B]","AChE IR, %",[1],10.4 ± 1.9%
same,IC50,[2]; [4],44.3 ± 3.7 µM
same,"BChE IR, %",[2],64.4 ± 3.2%
same,Ki,[3]; [5],38.2 µM
"COC(=O)C1(Cc2ccc(O)cc2)OC(=O)C(O)=C1c1ccc(O)cc1 (centres unmarked) [Compound 9, butyrolactone II]","AChE IR, %",[1],9.6 ± 0.5%
same,IC50,[2]; [4],> 100 µM
same,"BChE IR, %",[2],19.9 ± 6.0%
"CC(C)=CCc1cc(/C=C2\OC(=O)C(c3ccc(O)c(CC=C(C)C)c3)=C2O)ccc1O [Aspulvinone H, aspulvinone H, reference compound]","AChE IR, %",[1],9.6 ± 3.4%
same,IC50,[2]; [4],> 100 µM
same,"BChE IR, %",[2],6.5 ± 2.6%
"COC(=O)C1(Cc2ccc(O)c(CCC(C)(C)OC)c2)OC(=O)C(O)=C1c1ccc(O)cc1 (centres unmarked) [Compound 13, aspernolide C]","AChE IR, %",[1],3.9 ± 0.9%
same,IC50,[2]; [4],> 100 µM
same,"BChE IR, %",[2],22.6 ± 5.3%
"CCOC(=O)C1(Cc2ccc(O)c(CC=C(C)C)c2)OC(=O)C(O)=C1c1ccc(O)cc1 (centres unmarked) [Compound 7, butyrolactone VII]","AChE IR, %",[1],11.7 ± 1.4%
same,IC50,[2]; [4],18.4 ± 2.5 µM
same,"BChE IR, %",[2],76.0 ± 3.5%
same,Ki,[3]; [5],12.3 µM
"COC(=O)C1(Cc2ccc3c(c2)CCC(C)(C)O3)OC(=O)C(O)=C1c1ccc(O)cc1 (centres unmarked) [Compound 11, aspernolide A]","AChE IR, %",[1],−0.1 ± 0.7%
same,IC50,[2]; [4],> 100 µM
same,"BChE IR, %",[2],25.4 ± 3.7%
"COC(=O)[C@@]1(O)OC(=O)C(Cc2ccc(O)c(CC=C(C)C)c2)=C1c1ccc(O)cc1 [Compound 4, butyrolactone VIII]","AChE IR, %",[1],11.9 ± 1.0%
same,IC50,[2]; [4],45.8 ± 6.9 µM
same,"BChE IR, %",[2],67.3 ± 2.8%
same,Ki,[3]; [5],23.6 µM
"COC(=O)C1(O)OC(=O)C(Cc2ccc(O)c(CCC(C)(C)O)c2)=C1c1ccc(O)cc1 (centres unmarked) [Compound 2, methyl-2-hydroxy-4-(4-hydroxy-3-(3-hydroxy-3-methylbutyl)benzyl)-3-(4-hydroxyphenyl)-5-oxo-2,5-dihydrofuran-2-carboxylate]","AChE IR, %",[1],7.7 ± 1.0%
same,IC50,[2]; [4],> 100 µM
same,"BChE IR, %",[2],3.2 ± 3.6%
"COC(=O)C1(O)OC(=O)C(Cc2ccc(O)c(CCC(C)(C)OC)c2)=C1c1ccc(O)cc1 (centres unmarked) [Compound 1, methyl-2-hydroxy-4-(4-hydroxy-3-(3-methoxy-3-methylbutyl)benzyl)-3-(4-hydroxyphenyl)-5-oxo-2,5-dihydrofuran-2-carboxylate]","AChE IR, %",[1],11.2 ± 3.6%
same,IC50,[2]; [4],> 100 µM
same,"BChE IR, %",[2],15.6 ± 2.3%
"COC(=O)[C@@]1(Cc2ccc(O)c(CC=C(C)C)c2)OC(=O)C(O)=C1c1ccc(O)cc1 [Compound 6, butyrolactone I]",IC50,α-glucosidase,1.52 µM
same,"AChE IR, %",[1],−6.7 ± 3.6%
same,IC50,[2],35.5 ± 1.3 µM
same,"BChE IR, %",[2],68.0 ± 4.1%
same,Ki,[3],19.3 µM
"COC(=O)C1(Cc2ccc(O)c(CC3OC3(C)C)c2)OC(=O)C(O)=C1c1ccc(O)cc1 (centres unmarked) [Compound 14, butyrolactone III]","AChE IR, %",[1],−4.2 ± 0.3%
same,IC50,[2],> 100 µM
same,"BChE IR, %",[2],-12.3 ± 4.6%
"COc1ccc2c3c1O[C@H]1C[C@@H](O)C=C[C@@]31CCN(C)C2 [Galantamine, reference compound]","BChE IR, %",[2],72.4 ± 1.2%
same,"BChE IR, %",[2]; listed as galantamine,72.4%
"COC(=O)[C@@]1(O)OC(=O)C(Cc2ccc3c(c2)CCC(C)(C)O3)=C1c1ccc(O)cc1 [Compound 3, flavipesolide B]","AChE IR, %",[1],19.6 ± 4.2%
same,IC50,[2]; [4],> 100 µM
same,"BChE IR, %",[2],22.5 ± 3.1%
